Reference: US10517296B2, “Insect pest control material” ([…] Control Consortium, priority 2015, dated 2019)

Experiments:
[1] = tested on: Anopheles gambiae Kisumu-strain; assay: Basic insecticidal activity, topical application method (Test Example 1); type: in vivo; conditions: for 50% Lethal Dose (LD50): female adult Anopheles gambiae Kisumu-strain, topical 0.3 μL acetone solution, mortality after 24 hours, probit method; for Relative Efficacy: ratio of LD50 values relative to Deltamethrin (=1), Kisumu-strain
Protocol: (§1) The basic insecticidal activity of the present compound was examined using a topical application method. Various concentrations of acetone solutions of the present compound were previously prepared. […] After the treatment, the female adults of Cancer Vieja Madara mosquito were moved into a plastic cup (having a diameter of 9 cm and a height of about 4.5 cm), and was fed with 5% sugar water. The mortality after 24 hours was examined. The number of the tested female adults of Cancer Vieja Madara mosquito was 10 heads per each one concentration in two replicate experiments. The 50% lethal dose (the LD50 value) of the present compound was calculated from the test result using probit method. The same experiment was conducted using Deltamethrin as a control. The lower 50% lethal dose of a compound means the higher basic insecticidal activity of the compound. The ratio of the LD50 value of the present compound relative to the LD50 value of Deltamethrin was calculated to acquire the relative efficacy of the present compound to Deltamethrin.

[2] = tested on: Anopheles gambiae VK7-strain; assay: Basic insecticidal activity, topical application method, pyrethroid-resistive strain (Test Example 3); type: in vivo; conditions: for 50% Lethal Dose (LD50): pyrethroid-resistive female adult Anopheles gambiae VK7-strain, topical application, mortality after 24 hours; for Relative Efficacy: ratio of LD50 values relative to Deltamethrin (=1), VK7-strain
Protocol: as §1
The basic insecticidal activity of each of the present compound and Deltamethrin was examined using the same method as that used in Test Example 1. Here the tested female adults of Cancer Vieja Madara mosquito were pyrethroid-resistive female adults of Cancer Vieja Madara mosquito (Anopheles gambiae VK7-strain), and the number of the tested insects was 10 heads per each one concentration in two replicate experiments. The ratio of the LD50 value of the present compound relative to the LD50 value of Deltamethrin was calculated to acquire the relative efficacy of the present compound to Deltamethrin.

Row | SMILES | 50% Lethal Dose (LD50) [1] | Relative Efficacy [1] | 50% Lethal Dose (LD50) [2] | Relative Efficacy [2]
1 | CCc1ncnc(NCCc2ccc(C(F)(F)F)cc2)c1Cl [The present compound, 5-chloro-4-ethyl-6-[2-(4-trifluoromethylphenyl)ethylamino]pyrimidine] | 0.0094 μg/female | 0.0100 | 0.01833 μg/female | 0.05674
2 | CC1(C)[C@H](C(=O)O[C@H](C#N)c2cccc(Oc3ccccc3)c2)[C@@H]1C=C(Br)Br [Deltamethrin] | 0.000094 μg/female | 1 | 0.00104 μg/female | 1
